# From article PMC10382584, “Macrocyclization of linear molecules by deep learning to facilitate macrocyclic drug candidates discovery” (Nature Communications, 2023)
# Key:
# Experiment in all cases: biochemical
# Parameters in all cases: DiscoveRx KINOMEscan competition binding, percent of DMSO control signal at 100 nM
# Conditions in all cases: read-out: Fig. 4a / Percent Control / Compound 1; percent of DMSO control, competition binding
# [1] = molecular target: T1, ABL1(H396P)-nonphosphorylated (Homo sapiens, UniProt P00519, H396P)
# T1 construct: nonphosphorylated
# [2] = molecular target: T2, ABL1(Y253F)-phosphorylated (Homo sapiens, UniProt P00519, Y253F)
# T2 construct: phosphorylated
# BRAF(V600E) = BRAF(V600E) (Homo sapiens, UniProt P15056, V600E)
# BRAF(V600E), sequence (P15056 whole entry V600E): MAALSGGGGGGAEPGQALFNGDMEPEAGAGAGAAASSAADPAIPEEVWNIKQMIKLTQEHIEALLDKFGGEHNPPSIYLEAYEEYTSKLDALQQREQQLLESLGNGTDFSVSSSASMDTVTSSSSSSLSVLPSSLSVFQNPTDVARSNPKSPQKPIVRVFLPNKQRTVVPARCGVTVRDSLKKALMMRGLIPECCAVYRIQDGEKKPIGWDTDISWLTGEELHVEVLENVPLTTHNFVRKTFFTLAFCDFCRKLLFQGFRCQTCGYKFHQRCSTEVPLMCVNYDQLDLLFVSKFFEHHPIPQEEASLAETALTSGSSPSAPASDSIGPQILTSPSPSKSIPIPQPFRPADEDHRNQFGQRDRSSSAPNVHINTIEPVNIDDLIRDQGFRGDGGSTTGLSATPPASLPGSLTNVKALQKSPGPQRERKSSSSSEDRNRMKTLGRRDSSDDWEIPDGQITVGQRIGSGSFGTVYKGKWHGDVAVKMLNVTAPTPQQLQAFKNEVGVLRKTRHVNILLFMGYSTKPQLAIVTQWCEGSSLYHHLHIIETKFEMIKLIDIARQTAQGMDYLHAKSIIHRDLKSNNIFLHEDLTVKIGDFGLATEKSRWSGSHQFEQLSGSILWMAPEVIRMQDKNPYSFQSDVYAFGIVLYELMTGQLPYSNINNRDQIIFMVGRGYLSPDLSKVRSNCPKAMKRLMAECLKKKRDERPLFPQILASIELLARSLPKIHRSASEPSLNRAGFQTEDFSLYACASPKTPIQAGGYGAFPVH
# CAMK1 = CAMK1 (Homo sapiens, UniProt Q14012)
# CAMK1B = molecular target: T3, CAMK1B (Homo sapiens, UniProt Q6P2M8)
# T3 construct: gene PNCK
# CDK4 = CDK4 (Homo sapiens, UniProt P11802)
# CDK4, sequence (P11802 whole entry): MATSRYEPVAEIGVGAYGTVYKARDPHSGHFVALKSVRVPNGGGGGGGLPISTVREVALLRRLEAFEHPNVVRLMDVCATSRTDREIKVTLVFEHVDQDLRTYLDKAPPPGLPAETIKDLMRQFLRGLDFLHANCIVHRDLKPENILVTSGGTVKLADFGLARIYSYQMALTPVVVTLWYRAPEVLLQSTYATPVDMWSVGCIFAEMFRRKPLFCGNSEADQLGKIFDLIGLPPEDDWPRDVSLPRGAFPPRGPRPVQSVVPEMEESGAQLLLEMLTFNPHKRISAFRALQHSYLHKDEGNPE
# CLK1 = CLK1 (Homo sapiens, UniProt P49759)
# CSK = CSK (Homo sapiens, UniProt P41240)
# DCAMKL1 = molecular target: T4, DCAMKL1 (Homo sapiens, UniProt O15075)
# T4 construct: gene DCLK1
# DMPK2 = molecular target: T5, DMPK2 (Homo sapiens, UniProt Q6DT37)
# T5 construct: gene CDC42BPG
# EGFR(L858R) = EGFR(L858R) (Homo sapiens, UniProt P00533, L858R)
# EGFR(L858R), sequence (P00533 whole entry L858R): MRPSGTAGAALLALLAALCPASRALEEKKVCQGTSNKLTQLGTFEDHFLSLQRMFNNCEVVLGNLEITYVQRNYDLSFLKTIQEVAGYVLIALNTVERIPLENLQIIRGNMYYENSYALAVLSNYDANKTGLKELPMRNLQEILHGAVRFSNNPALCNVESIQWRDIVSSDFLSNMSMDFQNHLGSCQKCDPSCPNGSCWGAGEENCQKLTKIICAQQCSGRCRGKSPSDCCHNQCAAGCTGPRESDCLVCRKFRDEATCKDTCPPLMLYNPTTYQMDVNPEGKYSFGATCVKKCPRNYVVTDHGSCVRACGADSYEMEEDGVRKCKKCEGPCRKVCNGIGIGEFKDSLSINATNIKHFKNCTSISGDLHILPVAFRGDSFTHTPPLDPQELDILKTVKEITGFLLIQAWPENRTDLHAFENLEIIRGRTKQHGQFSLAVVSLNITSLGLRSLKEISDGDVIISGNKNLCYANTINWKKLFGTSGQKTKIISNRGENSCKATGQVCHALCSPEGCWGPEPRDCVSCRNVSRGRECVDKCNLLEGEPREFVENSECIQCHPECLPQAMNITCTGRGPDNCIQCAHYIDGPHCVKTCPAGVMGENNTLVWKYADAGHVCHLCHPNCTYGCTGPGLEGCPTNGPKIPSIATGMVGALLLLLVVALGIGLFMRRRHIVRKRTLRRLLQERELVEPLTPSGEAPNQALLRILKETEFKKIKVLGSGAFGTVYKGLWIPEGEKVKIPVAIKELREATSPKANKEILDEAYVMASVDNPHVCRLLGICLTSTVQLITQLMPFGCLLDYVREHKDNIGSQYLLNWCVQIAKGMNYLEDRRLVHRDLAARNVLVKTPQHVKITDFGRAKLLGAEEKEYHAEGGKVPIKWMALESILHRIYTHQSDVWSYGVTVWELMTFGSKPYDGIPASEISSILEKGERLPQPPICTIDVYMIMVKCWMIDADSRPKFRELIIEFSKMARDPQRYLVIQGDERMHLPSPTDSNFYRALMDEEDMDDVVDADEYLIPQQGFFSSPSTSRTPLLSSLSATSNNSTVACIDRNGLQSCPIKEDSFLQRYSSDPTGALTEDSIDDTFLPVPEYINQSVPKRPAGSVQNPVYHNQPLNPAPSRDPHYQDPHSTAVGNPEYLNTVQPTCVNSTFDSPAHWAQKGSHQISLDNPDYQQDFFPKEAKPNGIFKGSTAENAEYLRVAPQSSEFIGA
# EPHB4 = EPHB4 (Homo sapiens, UniProt P54760)
# EPHB4, sequence (P54760 whole entry): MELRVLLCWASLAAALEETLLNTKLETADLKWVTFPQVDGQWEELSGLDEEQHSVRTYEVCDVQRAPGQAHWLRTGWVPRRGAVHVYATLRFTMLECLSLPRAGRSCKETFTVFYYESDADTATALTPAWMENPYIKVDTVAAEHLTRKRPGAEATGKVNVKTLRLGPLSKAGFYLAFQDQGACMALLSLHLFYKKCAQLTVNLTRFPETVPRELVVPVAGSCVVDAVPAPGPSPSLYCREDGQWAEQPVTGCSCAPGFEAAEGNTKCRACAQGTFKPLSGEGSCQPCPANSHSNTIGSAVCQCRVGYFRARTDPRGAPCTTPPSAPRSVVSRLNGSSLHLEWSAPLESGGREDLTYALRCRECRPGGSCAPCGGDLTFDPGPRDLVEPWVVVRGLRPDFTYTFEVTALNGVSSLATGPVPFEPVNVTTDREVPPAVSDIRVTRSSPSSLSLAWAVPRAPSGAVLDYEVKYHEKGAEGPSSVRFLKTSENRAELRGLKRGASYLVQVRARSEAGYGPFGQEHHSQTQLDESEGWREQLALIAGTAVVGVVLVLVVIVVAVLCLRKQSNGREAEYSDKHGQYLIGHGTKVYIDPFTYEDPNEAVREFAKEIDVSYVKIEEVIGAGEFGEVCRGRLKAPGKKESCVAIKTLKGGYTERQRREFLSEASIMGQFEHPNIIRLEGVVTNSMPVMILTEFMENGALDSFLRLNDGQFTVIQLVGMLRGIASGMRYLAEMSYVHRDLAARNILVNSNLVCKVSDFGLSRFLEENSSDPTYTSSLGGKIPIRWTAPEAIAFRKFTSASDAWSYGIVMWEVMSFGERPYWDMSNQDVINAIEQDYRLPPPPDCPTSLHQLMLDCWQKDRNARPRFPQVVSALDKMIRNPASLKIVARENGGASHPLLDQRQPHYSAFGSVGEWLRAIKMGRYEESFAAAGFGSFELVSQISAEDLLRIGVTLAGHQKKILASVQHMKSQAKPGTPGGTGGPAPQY
# FAK = molecular target: T6, FAK (Homo sapiens, UniProt Q05397)
# T6 construct: gene PTK2
# FLT4 = FLT4 (Homo sapiens, UniProt P35916)
# MAP3K1 = MAP3K1 (Homo sapiens, UniProt Q13233)
# MAP3K4 = MAP3K4 (Homo sapiens, UniProt Q9Y6R4)
# MLK1 = molecular target: T7, MLK1 (Homo sapiens, UniProt P80192)
# T7 construct: gene MAP3K9
# NEK2 = NEK2 (Homo sapiens, UniProt P51955)
# NEK5 = NEK5 (Homo sapiens, UniProt Q6P3R8)
# NEK5, sequence (Q6P3R8 whole entry): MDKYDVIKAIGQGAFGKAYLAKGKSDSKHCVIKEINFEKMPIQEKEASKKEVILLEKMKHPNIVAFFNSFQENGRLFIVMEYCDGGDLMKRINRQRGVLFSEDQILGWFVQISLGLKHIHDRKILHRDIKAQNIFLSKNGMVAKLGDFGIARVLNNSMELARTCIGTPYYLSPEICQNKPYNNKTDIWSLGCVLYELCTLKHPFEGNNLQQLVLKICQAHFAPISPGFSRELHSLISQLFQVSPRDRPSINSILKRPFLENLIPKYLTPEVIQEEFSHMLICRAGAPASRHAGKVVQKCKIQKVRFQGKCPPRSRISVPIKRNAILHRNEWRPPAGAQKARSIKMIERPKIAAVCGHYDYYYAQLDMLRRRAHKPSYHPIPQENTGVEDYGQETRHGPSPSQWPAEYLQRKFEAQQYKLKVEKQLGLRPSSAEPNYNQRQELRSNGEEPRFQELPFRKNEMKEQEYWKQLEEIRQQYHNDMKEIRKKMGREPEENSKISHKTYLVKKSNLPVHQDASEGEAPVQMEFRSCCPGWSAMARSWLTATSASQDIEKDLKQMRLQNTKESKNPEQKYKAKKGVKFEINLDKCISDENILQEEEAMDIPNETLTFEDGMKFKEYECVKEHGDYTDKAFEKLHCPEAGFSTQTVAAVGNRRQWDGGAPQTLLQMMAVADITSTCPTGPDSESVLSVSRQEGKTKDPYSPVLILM
# PDPK1 = PDPK1 (Homo sapiens, UniProt O15530)
# PRKG2 = PRKG2 (Homo sapiens, UniProt Q13237)
# [3] = molecular target: T8, RPS6KA4(Kin.Dom.2-C-terminal) (Homo sapiens, UniProt O75676)
# T8 construct: Kin.Dom.2-C-terminal
# STK39 = STK39 (Homo sapiens, UniProt Q9UEW8)
# TAOK3 = TAOK3 (Homo sapiens, UniProt Q9H2K8)
# TYRO3 = TYRO3 (Homo sapiens, UniProt Q06418)
# TYRO3, sequence (Q06418 whole entry): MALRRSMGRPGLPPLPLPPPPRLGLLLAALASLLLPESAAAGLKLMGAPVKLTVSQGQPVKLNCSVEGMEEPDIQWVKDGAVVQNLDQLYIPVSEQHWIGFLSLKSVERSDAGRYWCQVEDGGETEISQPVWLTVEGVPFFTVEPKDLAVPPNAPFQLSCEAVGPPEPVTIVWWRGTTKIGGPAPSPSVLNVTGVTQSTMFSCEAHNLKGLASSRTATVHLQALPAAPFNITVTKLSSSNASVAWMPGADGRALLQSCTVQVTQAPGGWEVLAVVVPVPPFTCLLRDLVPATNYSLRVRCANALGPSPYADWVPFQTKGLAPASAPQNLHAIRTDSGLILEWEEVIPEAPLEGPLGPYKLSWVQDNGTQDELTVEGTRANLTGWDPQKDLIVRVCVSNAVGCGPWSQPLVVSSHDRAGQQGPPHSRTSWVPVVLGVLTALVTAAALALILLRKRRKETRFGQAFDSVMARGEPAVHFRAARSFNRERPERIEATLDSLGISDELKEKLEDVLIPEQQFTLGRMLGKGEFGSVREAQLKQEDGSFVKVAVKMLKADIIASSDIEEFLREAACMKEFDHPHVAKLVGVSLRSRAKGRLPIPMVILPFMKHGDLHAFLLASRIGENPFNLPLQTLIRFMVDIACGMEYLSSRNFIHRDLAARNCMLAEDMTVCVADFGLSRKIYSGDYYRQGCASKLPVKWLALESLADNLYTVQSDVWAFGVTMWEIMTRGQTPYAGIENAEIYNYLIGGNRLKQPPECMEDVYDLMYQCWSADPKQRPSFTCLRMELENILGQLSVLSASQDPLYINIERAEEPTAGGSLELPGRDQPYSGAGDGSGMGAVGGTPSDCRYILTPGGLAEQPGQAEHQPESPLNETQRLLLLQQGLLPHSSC
# 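Also: KINOMEscan kinase panel binding assay, signal normalized between DMSO as 100% and a positive control compound as 0%.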
structure (smiles),measurement,setting,value
Cc1cnc2nc1Nc1cccc(c1)COCc1cc(ccc1OCCN1CCCC1)N2 [Compound 1],remaining binding at 0.1 µM,[1],37%
same,remaining binding at 0.1 µM,[2],64%
same,remaining binding at 0.1 µM,BRAF(V600E),93%
same,remaining binding at 0.1 µM,CAMK1,92%
same,remaining binding at 0.1 µM,CAMK1B,92%
same,remaining binding at 0.1 µM,CDK4,96%
same,remaining binding at 0.1 µM,CLK1,95%
same,remaining binding at 0.1 µM,CSK,100%
same,remaining binding at 0.1 µM,DCAMKL1,90%
same,remaining binding at 0.1 µM,DMPK2,98%
same,remaining binding at 0.1 µM,EGFR(L858R),73%
same,remaining binding at 0.1 µM,EPHB4,100%
same,remaining binding at 0.1 µM,FAK,95%
same,remaining binding at 0.1 µM,FLT4,85%
same,remaining binding at 0.1 µM,MAP3K1,79%
same,remaining binding at 0.1 µM,MAP3K4,100%
same,remaining binding at 0.1 µM,MLK1,100%
same,remaining binding at 0.1 µM,NEK2,83%
same,remaining binding at 0.1 µM,NEK5,93%
same,remaining binding at 0.1 µM,PDPK1,98%
same,remaining binding at 0.1 µM,PRKG2,47%
same,remaining binding at 0.1 µM,[3],75%
same,remaining binding at 0.1 µM,STK39,62%
same,remaining binding at 0.1 µM,TAOK3,56%
same,remaining binding at 0.1 µM,TYRO3,55%
